Data as given in patent US9187467B2, “2-phenyl benzothiazole linked imidazole compounds as potential anticancer agents and process for the preparation thereof” (Council of Scientific and Industrial Research, priority 2012, dated 2015).
Where two headings read alike, the source gives them in different places.

Tests used:
SK-MEL-28 = assay: SRB anticancer assay, melanoma; format: cell-based, human; set-up: Log10GI50: unit not given here
SK-OV-3 = assay: SRB anticancer assay, ovarian; format: cell-based, human; settings: Homo sapiens, SK-OV-3, 48 h
IGROV1 = assay: SRB anticancer assay, ovarian; format: cell-based, human; settings: Homo sapiens, IGROV-1; IGROV1, 48 h
SF-268 = assay: SRB anticancer assay, CNS; format: cell-based, human; set-up: Log10GI50: unit not given here
MDA-MB-231/ATCC = assay: SRB anticancer assay, breast; format: cell-based, human; set-up: Log10GI50: unit not given here; settings: for GI50: 48 h
HL-60 (TB) = assay: SRB anticancer assay, leukemia; format: cell-based, human; set-up: Log10GI50: unit not given here
OVCAR-5 = assay: SRB anticancer assay, ovarian; format: cell-based, human; settings: Homo sapiens, OVCAR-5, 48 h
A498 = assay: SRB anticancer assay, renal; format: cell-based, human; set-up: Log10GI50: unit not given here
UACC-62 = assay: SRB anticancer assay, melanoma; format: cell-based, human
U251 = assay: SRB anticancer assay, CNS; format: cell-based, human; set-up: Log10GI50: unit not given here; settings: U251; present compounds
A549/ATCC = assay: SRB anticancer assay, non-small lung; format: cell-based, human; set-up: Log10GI50: unit not given here
KM12 = assay: SRB anticancer assay, colon; format: cell-based, human; settings: Homo sapiens, KM12, 48 h
K-562 = assay: SRB anticancer assay, leukemia; format: cell-based, human; set-up: Log10GI50: unit not given here
BT-549 = assay: SRB anticancer assay, breast; format: cell-based, human; set-up: Log10GI50: unit not given here
DU-145 = assay: SRB anticancer assay, prostate; format: cell-based, human; set-up: Log10GI50: unit not given here
HT29 = assay: SRB anticancer assay, colon; format: cell-based, human; settings: Homo sapiens, HT-29; HT29, 48 h
NCI-H460 = assay: SRB anticancer assay, non-small lung; format: cell-based, human; settings: Homo sapiens, NCI-H460, 48 h
SK-MEL-5 = assay: SRB anticancer assay, melanoma; format: cell-based, human; settings: Homo sapiens, SK-MEL-5, 48 h
TK-10 = assay: SRB anticancer assay, renal; format: cell-based, human; settings: Homo sapiens, TK-10, 48 h
NCI-H322M = assay: SRB anticancer assay, non-small lung; format: cell-based, human; settings: Homo sapiens, 48 h
UO-31 = assay: SRB anticancer assay, renal; format: cell-based, human; set-up: Log10GI50: unit not given here
OVCAR-3 = assay: SRB anticancer assay, ovarian; format: cell-based, human; set-up: Log10GI50: unit not given here
HS 578T = assay: SRB anticancer assay, breast; format: cell-based, human; settings: Homo sapiens, 48 h
SF-539 = assay: SRB anticancer assay, CNS; format: cell-based, human; set-up: Log10GI50: unit not given here
786-0 = assay: SRB anticancer assay, renal; format: cell-based, human
SR = assay: SRB anticancer assay, leukemia; format: cell-based, human; settings: Homo sapiens, 48 h
MALME-3M = assay: SRB anticancer assay, melanoma; format: cell-based, human; set-up: Log10GI50: unit not given here
ACHN = assay: SRB anticancer assay, renal; format: cell-based, human; set-up: Log10GI50: unit not given here
NCI-H23 = assay: SRB anticancer assay, non-small lung; format: cell-based, human
SF-295 = assay: SRB anticancer assay, CNS; format: cell-based, human; set-up: Log10GI50: unit not given here
NCI-H226 = assay: SRB anticancer assay, non-small lung; format: cell-based, human; settings: Homo sapiens, NCI-H226, 48 h
T-47D = assay: SRB anticancer assay, breast; format: cell-based; settings: Homo sapiens, T47D, 48 h
UACC-257 = assay: SRB anticancer assay, melanoma; format: cell-based, human
NCI-H522 = assay: SRB anticancer assay, non-small lung; format: cell-based, human; set-up: Log10GI50: unit not given here
LOX IMVI = assay: SRB anticancer assay, melanoma; format: cell-based, human; set-up: Log10GI50: unit not given here
PC-3 = assay: SRB anticancer assay, prostate; format: cell-based, human; set-up: Log10GI50: unit not given here

SMILES: COc1cc(-c2cncn2-c2ccc(-c3nc4ccc(F)cc4s3)cc2)ccc1F [Compound 4c, 6-Fluoro-2-(4-(5-(4-fluoro-3-methoxyphenyl)-1H-imidazol-1-yl)phenyl)benzo[d]thiazole]
- GI50 (SK-MEL-28; Homo sapiens, SK-MEL-28, 48 h): 35.1 µM
- Log10GI50 (SK-MEL-28; SK-MEL-28, present compounds): −4.45
- GI50 (SK-OV-3): > 100 µM
- GI50 (IGROV1): 15.4 µM
- GI50 (SF-268; Homo sapiens, SF-268, 48 h): 12.7 µM
- Log10GI50 (SF-268; SF-268, present compounds): −4.51
- GI50 (MDA-MB-231/ATCC; Homo sapiens, MDA-MB-231, 48 h, MDA-MB-231/ATCC (row head MDA-MB-), read-out: GI50): 32.2 µM
- Log10GI50 (MDA-MB-231/ATCC; MDA-MB-231/ATCC, present compounds): −4.49
- GI50 (MDA-MB-231/ATCC; listed as head printed 231/ATCC (second line of MDA-MB-231/ATCC)): —a
- Log10GI50 (HL-60 (TB); HL-60(TB), present compounds): −5.60
- GI50 (HL-60 (TB); Homo sapiens, HL-60, 48 h): 2.5 µM
- GI50 (OVCAR-5): > 100 µM
- Log10GI50 (A498; A498, present compounds): −7.36
- GI50 (A498; Homo sapiens, A498, 48 h): 0.0432 µM
- GI50 (UACC-62; Homo sapiens, UACC-62, 48 h): 8.67 µM
- Log10GI50 (UACC-62; UACC-62, present compounds): −5.06 log10 M
- Log10GI50 (U251): −4.90
- GI50 (A549/ATCC; Homo sapiens, 48 h): 12.3 µM
- Log10GI50 (A549/ATCC; present compounds): −4.91
- GI50 (KM12): 6.4 µM
- GI50 (K-562; Homo sapiens, K562, K-562, 48 h): 3.93 µM
- Log10GI50 (K-562; K-562, present compounds): −5.41
- Log10GI50 (BT-549; BT-549, present compounds): −4.94
- GI50 (BT-549; Homo sapiens, BT-549, 48 h): 7.98 µM
- Log10GI50 (DU-145; DU-145, present compounds): −4.85
- GI50 (DU-145; Homo sapiens, DU-145, 48 h): 14.3 µM
- GI50 (HT29): 10.8 µM
- GI50 (NCI-H460): 5.7 µM
- GI50 (SK-MEL-5): 12.1 µM
- GI50 (TK-10): 38.8 µM
- GI50 (NCI-H322M): 36.3 µM
- GI50 (UO-31; Homo sapiens, UO-31, 48 h): 16.5 µM
- Log10GI50 (UO-31; UO-31, present compounds): −4.78
- GI50 (OVCAR-3; Homo sapiens, OVCAR-3, 48 h): 5.71 µM
- Log10GI50 (OVCAR-3; OVCAR-3, present compounds): −5.24
- GI50 (HS 578T): 11.5 µM
- GI50 (SF-539; Homo sapiens, SF-539, 48 h): > 100 µM
- Log10GI50 (SF-539; SF-539, present compounds): −4.12
- Log10GI50 (786-0; 786-0, present compounds): −4.44 log10 M
- GI50 (786-0; Homo sapiens, 786-0, 48 h): 36.1 µM
- GI50 (SR): 4.99 µM
- GI50 (MALME-3M; Homo sapiens, Malme-3M, 48 h): 11.1 µM
- Log10GI50 (MALME-3M; MALME-3M, present compounds): −4.95
- GI50 (ACHN; Homo sapiens, 48 h): 29.1 µM
- Log10GI50 (ACHN; present compounds): −4.54
- GI50 (NCI-H23; Homo sapiens, NCI-H23, 48 h): 8.25 µM
- Log10GI50 (NCI-H23; NCI-H23, present compounds): −5.08 log10(M)
- GI50 (SF-295; Homo sapiens, SF-295, 48 h): 75.9 µM
- Log10GI50 (SF-295; SF-295, present compounds): −4.90
- GI50 (NCI-H226): 49.3 µM
- GI50 (T-47D): 11.1 µM
- GI50 (UACC-257; Homo sapiens, UACC-257, 48 h): 4.11 µM
- Log10GI50 (UACC-257; UACC-257, present compounds): −5.39 log10(M)
- GI50 (NCI-H522; Homo sapiens, NCI-H522, 48 h): 9.9 µM
- Log10GI50 (NCI-H522; NCI-H522, present compounds): −5.00
- GI50 (LOX IMVI; Homo sapiens, 48 h): 35.9 µM
- Log10GI50 (LOX IMVI; present compounds): −4.44
- GI50 (PC-3; Homo sapiens, PC-3, 48 h): 3.47 µM
- Log10GI50 (PC-3; PC-3, present compounds): −5.46
